The text below walks through data of US11173151B2, “Substituted triazole derivatives and uses thereof” (BAYER AKTIENGESELLSCHAFT, priority 2017, dated 2021).

Assay [1] addresses T1, human V1a receptor (Homo sapiens, UniProt P37288).
T1 construct: expressed in transfected cells; host or cells: CHO K1 (ATCC), also stably transfected with a modified aequorin
The assay is described as follows: Cellular in vitro assay for determining vasopressin receptor activity, V1a receptor cell line (CHO, aequorin luminescence). The class given is cell-based. The note with it: for IC50: CHO cell line transfected with human V1a receptor, [Arg]-vasopressin at EC50 concentration, read-out: IC50 hV1a; for ratio IC50 hV2/hV1a: selectivity ratio IC50 hV2 / IC50 hV1a. The method in brief:
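CHO K1/aequorin cells, coelenterazine 5 μg/ml o/n; cpd 10 min; [Arg]-vasopressin at EC50; luminescence read immediately; IC50.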

For assay [2], the target named is T2, human V2 receptor (Homo sapiens, UniProt P30518).
T2 construct: expressed in transfected cells; host or cells: CHO K1 (ATCC) expressing firefly luciferase under a CRE-responsive promoter
T2 sequence (P30518 whole entry): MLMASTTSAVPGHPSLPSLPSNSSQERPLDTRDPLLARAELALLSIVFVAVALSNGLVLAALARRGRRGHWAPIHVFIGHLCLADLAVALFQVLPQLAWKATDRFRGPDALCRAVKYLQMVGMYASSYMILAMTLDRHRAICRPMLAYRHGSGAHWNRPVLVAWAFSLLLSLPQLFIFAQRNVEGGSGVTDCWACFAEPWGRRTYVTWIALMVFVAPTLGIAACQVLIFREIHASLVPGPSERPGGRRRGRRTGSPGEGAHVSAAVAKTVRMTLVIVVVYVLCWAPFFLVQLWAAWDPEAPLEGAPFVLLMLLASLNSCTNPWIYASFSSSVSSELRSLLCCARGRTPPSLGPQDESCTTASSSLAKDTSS
The assay is described as follows: Cellular in vitro assay for determining vasopressin receptor activity, V2 receptor cell line (CHO, CRE-luciferase). The class given is cell-based. Conditions: CHO cell line transfected with human V2 receptor; [Arg8]-vasopressin at EC50 concentration, 3 hours; read-out: IC50 hV2.

T1 sequence (P37288 whole entry): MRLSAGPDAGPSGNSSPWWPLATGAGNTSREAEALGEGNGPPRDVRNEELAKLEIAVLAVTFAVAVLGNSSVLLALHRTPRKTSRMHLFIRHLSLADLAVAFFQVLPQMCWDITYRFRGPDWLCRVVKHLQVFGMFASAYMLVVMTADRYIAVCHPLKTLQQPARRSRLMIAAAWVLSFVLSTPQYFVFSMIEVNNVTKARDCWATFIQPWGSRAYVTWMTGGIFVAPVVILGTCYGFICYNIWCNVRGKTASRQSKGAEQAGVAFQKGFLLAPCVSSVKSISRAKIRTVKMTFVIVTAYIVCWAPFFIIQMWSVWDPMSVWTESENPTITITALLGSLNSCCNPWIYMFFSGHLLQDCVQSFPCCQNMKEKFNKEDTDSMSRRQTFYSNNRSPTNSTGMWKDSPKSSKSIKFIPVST

Regarding `Cn1nccc1C(=O)Nc1ncccc1-n1cnc(Cn2nc(-c3ccc(Cl)cc3)n(C[C@H](O)C(F)(F)F)c2=O)n1` [Example 106], in assay [1], the IC50 is 2.35 nM and the “ratio IC50 hV2/hV1a” value stood at 510.6. In assay [2], the half-inhibitory concentration (IC50) amounted to 1200 nM.

Turning to `Cc1cccc(C(=O)Nc2ncccc2-n2cnc(Cn3nc(-c4ccc(Cl)cc4)n(C[C@H](O)C(F)(F)F)c3=O)n2)n1` [Example 107], the values for the IC50 in assay [1] and in assay [2] were 5.65 nM and 710 nM, respectively. In addition, in assay [1], the “ratio IC50 hV2/hV1a” value was determined as 125.7.

Consider `Cc1nc(C(=O)Nc2ncccc2-n2cnc(Cn3nc(-c4ccc(Cl)cc4)n(C[C@H](O)C(F)(F)F)c3=O)n2)no1` [Example 108], for which, in assay [1], the IC50 is 31.5 nM and the “ratio IC50 hV2/hV1a” value turned out to be 22.2. The IC50 in assay [2] is 700 nM.

As to `CN1CCC(C(=O)Nc2ncccc2-n2cnc(Cn3nc(-c4ccc(Cl)cc4)n(C[C@H](O)C(F)(F)F)c3=O)n2)CC1` [Example 109], the figures for the IC50 in assay [1] and in assay [2] were 115 nM and 6750 nM, respectively. Besides, in assay [1], the “ratio IC50 hV2/hV1a” value amounted to 58.7.

With `CCn1ccc(C(=O)Nc2ncccc2-n2cnc(Cn3nc(-c4ccc(Cl)cc4)n(C[C@H](O)C(F)(F)F)c3=O)n2)n1` [Example 110], in assay [1], the IC50 came to 6.3 nM and the “ratio IC50 hV2/hV1a” value is recorded as 83.3. Besides, the IC50 in assay [2] stood at 525 nM.

Regarding `CCn1nccc1C(=O)Nc1ncccc1-n1cnc(Cn2nc(-c3ccc(Cl)cc3)n(C[C@H](O)C(F)(F)F)c2=O)n1` [Example 111], the values for the IC50 in assay [1] and in assay [2] were 4.7 nM and 1300 nM, respectively. For the same molecule, in assay [1], the “ratio IC50 hV2/hV1a” value was 276.6.

As to `CCn1cc(C(=O)Nc2ncccc2-n2cnc(Cn3nc(-c4ccc(Cl)cc4)n(C[C@H](O)C(F)(F)F)c3=O)n2)cn1` [Example 112], in assay [1], the IC50 is 170 nM and the “ratio IC50 hV2/hV1a” value is recorded as 388.2. In assay [2], the IC50 amounted to 66000 nM.

For `CC1(C(=O)Nc2ncccc2-n2cnc(Cn3nc(-c4ccc(Cl)cc4)n(C[C@H](O)C(F)(F)F)c3=O)n2)CCCCC1` [Example 113], in assay [1], the 50% inhibitory concentration (IC50) amounted to 91 nM and the “ratio IC50 hV2/hV1a” value is listed as 9.2. The IC50 in assay [2] was determined as 835 nM.

Consider `CC1CC1C(=O)Nc1ncccc1-n1cnc(Cn2nc(-c3ccc(Cl)cc3)n(C[C@H](O)C(F)(F)F)c2=O)n1` (stereo partly drawn) [Example 114], for which the figures for the IC50 in assay [1] and in assay [2] were 19 nM and 240 nM, respectively. Also, the “ratio IC50 hV2/hV1a” value in assay [1] is recorded as 12.6.

Consider `O=C(Nc1ncccc1-n1cnc(Cn2nc(-c3ccc(Cl)cc3)n(C[C@H](O)C(F)(F)F)c2=O)n1)C1CCC1` [Example 115], for which the IC50 was determined as 31 nM in assay [1] and 490 nM in assay [2]. Moreover, the “ratio IC50 hV2/hV1a” value in assay [1] amounted to 15.8.

As to `O=C(Nc1ncccc1-n1cnc(Cn2nc(-c3ccc(Cl)cc3)n(C[C@H](O)C(F)(F)F)c2=O)n1)c1ccccc1F` [Example 116], in assay [1], the IC50 is 78 nM and the “ratio IC50 hV2/hV1a” value came to 14.7. For the same molecule, the IC50 in assay [2] stood at 1150 nM.

With `CC(C)(C)C(=O)Nc1ncccc1-n1cnc(Cn2nc(-c3ccc(Cl)cc3)n(C[C@H](O)C(F)(F)F)c2=O)n1` [Example 117], in assay [1], the concentration for half-maximal inhibition (IC50) turned out to be 65.5 nM and the “ratio IC50 hV2/hV1a” value is 16.0. For the same molecule, in assay [2], the IC50 is 1050 nM.

As to `CC1(C(=O)Nc2ncccc2-n2cnc(Cn3nc(-c4ccc(Cl)cc4)n(C[C@H](O)C(F)(F)F)c3=O)n2)COC1` [Example 118], in assay [1], the IC50 came out at 140 nM and the “ratio IC50 hV2/hV1a” value is reported as 8.2. Moreover, in assay [2], the IC50 is 1150 nM.

Turning to `CC[C@H](C)C(=O)Nc1ncccc1-n1cnc(Cn2nc(-c3ccc(Cl)cc3)n(C[C@H](O)C(F)(F)F)c2=O)n1` [Example 119], the figures for the IC50 in assay [1] and in assay [2] were 35 nM and 270 nM, respectively. The “ratio IC50 hV2/hV1a” value in assay [1] came to 7.7.

For `CCC(C)(O)C(=O)Nc1ncccc1-n1cnc(Cn2nc(-c3ccc(Cl)cc3)n(C[C@H](O)C(F)(F)F)c2=O)n1` (stereo partly drawn) [Example 120], in assay [1], the 50% inhibitory concentration (IC50) was found to be 27 nM and the “ratio IC50 hV2/hV1a” value is listed as 15.7. The half-maximal inhibitory concentration (IC50) in assay [2] worked out at 425 nM.

Consider `O=C(Nc1ncccc1-n1cnc(Cn2nc(-c3ccc(Cl)cc3)n(C[C@H](O)C(F)(F)F)c2=O)n1)c1ccc(F)cc1` [Example 121], for which, in assay [1], the IC50 was found to be 52 nM and the “ratio IC50 hV2/hV1a” value was 28.8. Further, in assay [2], the IC50 stood at 1500 nM.

For `Cc1ccccc1C(=O)Nc1ncccc1-n1cnc(Cn2nc(-c3ccc(Cl)cc3)n(C[C@H](O)C(F)(F)F)c2=O)n1` [Example 122], the results for the IC50 in assay [1] and in assay [2] were 120 nM and 1650 nM, respectively. For the same molecule, in assay [1], the “ratio IC50 hV2/hV1a” value is reported as 13.8.

As for `Cc1ccc(C(=O)Nc2ncccc2-n2cnc(Cn3nc(-c4ccc(Cl)cc4)n(C[C@H](O)C(F)(F)F)c3=O)n2)cc1` [Example 123], the IC50 was found to be 105 nM in assay [1] and 2300 nM in assay [2]. Further, the “ratio IC50 hV2/hV1a” value in assay [1] is given as 21.9.

Consider `Cc1n[nH]c(C)c1C(=O)Nc1ncccc1-n1cnc(Cn2nc(-c3ccc(Cl)cc3)n(C[C@H](O)C(F)(F)F)c2=O)n1` [Example 124], for which, in assay [1], the IC50 stood at 315 nM and the “ratio IC50 hV2/hV1a” value was found to be 12.1. Further, the half-inhibitory concentration (IC50) in assay [2] was found to be 3800 nM.

As for `NC(=O)C1(C(=O)Nc2ncccc2-n2cnc(Cn3nc(-c4ccc(Cl)cc4)n(C[C@H](O)C(F)(F)F)c3=O)n2)CC1` [Example 125], the IC50 in assay [1] was 29.5 nM; in assay [2] it was 360 nM. Further, the “ratio IC50 hV2/hV1a” value in assay [1] was 12.2.

For `CC[C@@H](C)C(=O)Nc1ncccc1-n1cnc(Cn2nc(-c3ccc(Cl)cc3)n(C[C@H](O)C(F)(F)F)c2=O)n1` [Example 126], the IC50 in assay [1] turned out to be 36 nM; in assay [2], 250 nM. In assay [1], the “ratio IC50 hV2/hV1a” value came out at 6.9.

In the case of `Cc1ccn(CC(=O)Nc2ncccc2-n2cnc(Cn3nc(-c4ccc(Cl)cc4)n(C[C@H](O)C(F)(F)F)c3=O)n2)n1` [Example 127], in assay [1], the 50% inhibitory concentration (IC50) was determined as 160 nM and the “ratio IC50 hV2/hV1a” value is listed as 6.6. Moreover, the half-maximal inhibitory concentration (IC50) in assay [2] came to 1050 nM.

With `Cc1nnsc1C(=O)Nc1ncccc1-n1cnc(Cn2nc(-c3ccc(Cl)cc3)n(C[C@H](O)C(F)(F)F)c2=O)n1` [Example 128], in assay [1], the IC50 stood at 13.5 nM and the “ratio IC50 hV2/hV1a” value is given as 111.1. In assay [2], the half-maximal inhibitory concentration (IC50) came out at 1500 nM.

With `Cc1cc(C(=O)Nc2ncccc2-n2cnc(Cn3nc(-c4ccc(Cl)cc4)n(C[C@H](O)C(F)(F)F)c3=O)n2)nn1C` [Example 129], in assay [1], the half-maximal inhibitory concentration (IC50) is 670 nM and the “ratio IC50 hV2/hV1a” value is 5.4. Moreover, the IC50 in assay [2] is 3650 nM.

Take `Cc1[nH]ncc1C(=O)Nc1ncccc1-n1cnc(Cn2nc(-c3ccc(Cl)cc3)n(C[C@H](O)C(F)(F)F)c2=O)n1` [Example 130]: in assay [1], the half-maximal inhibitory concentration (IC50) came out at 189 nM and the “ratio IC50 hV2/hV1a” value was determined as 23.9. Besides, the IC50 in assay [2] stood at 4500 nM.

On to `CC(C(=O)Nc1ncccc1-n1cnc(Cn2nc(-c3ccc(Cl)cc3)n(C[C@H](O)C(F)(F)F)c2=O)n1)n1ccnc1` (stereo partly drawn) [Example 131], for which, in assay [1], the IC50 was 12.5 nM and the “ratio IC50 hV2/hV1a” value was found to be 156.0. In assay [2], the half-maximal inhibitory concentration (IC50) came out at 1950 nM.

Take `Cn1cncc1C(=O)Nc1ncccc1-n1cnc(Cn2nc(-c3ccc(Cl)cc3)n(C[C@H](O)C(F)(F)F)c2=O)n1` [Example 132]: the IC50 amounted to 45.5 nM in assay [1] and 5150 nM in assay [2]. In addition, the “ratio IC50 hV2/hV1a” value in assay [1] turned out to be 113.2.

Take `Cc1nonc1C(=O)Nc1ncccc1-n1cnc(Cn2nc(-c3ccc(Cl)cc3)n(C[C@H](O)C(F)(F)F)c2=O)n1` [Example 133]: in assay [1], the IC50 was 4.9 nM and the “ratio IC50 hV2/hV1a” value is reported as 295.9. The concentration for half-maximal inhibition (IC50) in assay [2] amounted to 1450 nM.

What is called IC50 is the concentration at which inhibition is half-maximal.
